The subject of one series is U251-MG tumors. In words: Subcutaneous xenografts in nude mice, intratumoral oligonucleotide. In kind it is in vivo, Balb/c nude mice. Conditions: for reduction in tumor size during the treatment period: intratumoral daily for 14 days, relative to starting size. The procedure:
(§1) U251-MG and U373 MG tumor cells (1.0×10^6 cells in 0.1 ml serum free DMEM and 0.1 ml Matrigel) were injected subcutaneously into the right flank of 8-12 week-old female Balb/c nude mice (5 mice for each treatment group). Tumor growth was monitored using calipers every 2- or 3-days. Tumor volume (V) was calculated as (L×W^2)/2, where L=length (mm) and W=width (mm). Oligonucleotide treatment was initiated when the tumors reached an average tumor volume of 60-100 mm^3 (about four to five weeks after injection). Oligonucleotides (5 nmol/20 microliter sterile distilled water) were administered by injecting them directly into the tumor every 24 hr for 7-14 days. Some experiments included lipofectamine at 1 microliter per 20 microliters final volume of oligonucleotide solution. Mice were sacrificed by cervical dislocation the day after the final injection and the tumors were removed, frozen rapidly and 12 μm sections were prepared for histological studies. During all of these experiments, which were approved by the CCF Research Programs Committee, the animals were housed and handled in accordance with the National Institutes of Health guidelines.

For a further series, the system named is U373-MG tumors. The description is as above. Conditions: 5 nmol intratumoral daily for 7 days. The format is in vivo, Balb/c nude mice. The procedure: as §1
The test system of another series is A375 tumors. In words: Subcutaneous tumors in nude mice, intratumoral oligonucleotide plus lipofectamine. The format is in vivo. The procedure:
(§2) RCC and A375 tumor cells (500,000 cells per tumor) were injected subcutaneously. The treatments, begun 8 days after tumor cell inoculation, was with 40 microliter of 25 micromolar SpA4-anti-hTR plus 1 microliter (2 microgram) lipofectamine injected in each tumor every day.

The next series concerns RCC tumors. The description is as above. In kind it is in vivo. The procedure:
as §2

Another series concerns U251-MG cells. In words: Cell viability assay, trypan blue dye exclusion, oligonucleotide in water every 12 hr. To be noted: 5 micromolar every 12 hr. In kind it is cell-based, human. The procedure: The cytotoxic effect of 2-5A activator antisense complexes on tumor cells was determined using the trypan blue dye exclusion assay. Tumor cells were seeded at 10^4 cells/well (0.1 ml) in 96-well flat-bottomed plates and incubated overnight at 37° C. Then, oligonucleotides (5 micromolar) in water were added into cells every 12 hr. On successive days the cells were harvested and 25% of the total was examined microscopically to determine the percentage of viable cells, another 25% was replated to continue treatment and the remaining 50% were used for the TRAP assay.
Knowing that hTR could be inactivated by the 2-5A antisense treatment, U251-MG cells were treated every 12 hours over a 14 day period with the same three oligonucleotides. 79% of the cells treated with spA4-anti-hTR were killed over the 14 day period with a significant (50%) reduction in cell viability after only 5 days. […] These experiments have since been repeated on a number of occasions with U251-MG cells to test new batches of oligonucleotides, always with the same results. […] Thus, after 14 days from the initial treatment with spA4-anti-hTR, the viability of U251-MG cells, as shown by Trypan-blue exclusion assays, was suppressed in all cases.

In series [1] the test system is breast cancer cell line, MDA468. In words: Viable cell count, daily oligonucleotide plus lipofectamine. To be noted: MDA468, 0.5 micromolar daily plus lipofectamine. The format is cell-based, human. The procedure:
(§3) Cells (10,000/well) were seeded on 96 well tissue culture dishes, and treated every 24 hours. A 10× concentrated mixture of oligonucleotides plus lipofectamine in water was prepared containing 5 micromolar oligonucleotide and 80 microgram per ml lipofectamine™ (Gibco/BRL) and incubated for 10 min at room temperature. Media was removed from the cells, 10 microliters of the oligonucleotide/lipofectamine mixture was added directly to the cultured cells followed by 90 microliters of media plus serum. The media was changed with oligonucleotide/lipofectamine treatments every 24 h. Cells were passaged when the control cells reached confluency, and viable cells were counted after staining with Trypan Blue (GibcoBRL). The numbers of cells treated only with lipofectamine were used as the control to calculate percentages of cell survival or viability.
(§4) Similarly, the viability of the breast cancer cell line, MDA468, was reduced by 64% by SpA4-anti-hTR, while the control oligonucleotides reduced cell viability by <20% (FIG. 6). Viability of the human melanoma cell line, A375, was reduced by 43% in three days by SpA4-anti-hTR, while the control oligonucleotides had no effect (FIG. 7). […] Viability of a third human melanoma cell line, SK-MEL-5, was reduced by 43% by SpA4-anti-hTR, with minimal effects by the control oligonucleotides (FIG. 7). Two prostate tumor cells lines, PC3 and DU145, were suppressed by SpA4-anti-hTR treatments by 45% and 60%, respectively (FIGS. 6 and 10). […] The viability of the malignant glioma cell line, U373, was reduced by about 60% in 3 days, with intermediate effects by the control oligonucleotides (FIG. 6). Therefore, the proliferation and survival of every tumor cell type tested was inhibited by SpA4-anti-hTR. […] In contrast, there was no apoptosis detected in the control cells treated with lipofectamine without oligonucleotide (FIG. 12 upper panel).

Series [2] relates to renal cell carcinoma cell line, RCC. Described as above. In kind it is cell-based, human. To be noted: 0.5 micromolar daily plus lipofectamine. The procedure:
as §3, §4

Series [3] deals with prostate tumor cell line PC3. Described as above. The format is cell-based, human. Conditions: PC3, 0.5 micromolar daily plus lipofectamine. The procedure: as §3, §4
The test system of series [4] is prostate tumor cell line DU145. The series is described as above. In kind it is cell-based, human. To be noted: DU145, 0.5 micromolar daily plus lipofectamine. The procedure: as §3, §4

Where “and” joins values, the source holds several entries; their conditions need not be identical. Equal entries are not always repeated. Entries after “also recorded” stand apart in the source; their conditions may differ.

Consider “Sp5′A2′p(5′A2p)3-[(Bu)p]2-5′GCG CGG GGA GCA AAA GCA C3′-3′T5′ (antisense GCGCGGGGAGCAAAAGCAC; 5'-thiophosphate 2-5A tetramer, butanediol linkers, 3'-3'T cap, chemistry not fully specified) [spA4-anti-hTR, 2-5A tetramer linked by butanediol linkers to 19-mer antisense against human telomerase RNA nucleotides 76 to 94]”, for which the “tumor growth (in words)” value in the series with U251-MG tumors (5 nmol intratumoral daily for 7 days) and in the series with U373-MG tumors was “significantly suppressed the growth; also recorded: failed to grow progressively” each time. Further, the “average net weight of the tumors after treatment” value with U251-MG tumors (14 days treatment) was determined as 54.0 ± 28.7 mg. For the same substance, in the series with U251-MG tumors (days 8-14 of the treatment compared with first 7 days), the “further change in tumor size (in words)” value is listed as “only a marginal additional reduction in size”. Besides, the “reduction in tumor size during the treatment period” value in the series on U251-MG tumors is 48% and 50%; with U251-MG tumors (listed as 2-5A-anti-hTR), 50%. The “increase in tumor size” value with A375 tumors (A375, 40 microliter of 25 micromolar plus lipofectamine intratumoral daily, seven days) is 17%; with RCC tumors (RCC, 40 microliter of 25 micromolar plus lipofectamine intratumoral daily, seven day period) it was 14%. The “tumor cell growth (in words)” value in the series on A375 tumors (A375 subcutaneous, oligonucleotide plus lipofectamine from day 8) is “Suppression”; in the series with RCC tumors (RCC subcutaneous, oligonucleotide plus lipofectamine from day 8), “Suppression”. The “cell death / effect on viability (in words)” value in the series on U251-MG cells (14 days) is recorded as “vast majority of cells can be killed”. Also, the “reduction in cell viability” value in the series on U251-MG cells (after 5 days) is reported as 50%. In addition, the cells killed in the series on U251-MG cells (over the 14 day period) is 79%. In series [1], the “effect on growth (in words)” value is “specifically suppressed growth”. For the same substance, the reduction in viability was 64% in series [1] and 61% in [2] (three days). Moreover, the “effect on growth/viability (in words)” value in series [2] (3 days), in [3] and in series [4] was “specifically suppressed growth” in each case. For the same substance, the suppression of cells in series [3] is given as 45%; in [4], 60%.
